Here are results for 9 compounds from patent US9226929B2, “Pharmaceutically active disubstituted triazine derivatives” (Bayer Intellectual Property GMBH, priority 2011, dated 2016).

Structures are written as SMILES.

One assay has as its target T1, CDK9/Cyclin T1 (Homo sapiens, UniProt P50750).
T1 construct: His; purchased Invitrogen
In words: LanthaScreen Eu Kinase Binding Assay, CDK9/Cyclin T1. The conditions noted are these: tracer 236, read-out: CDK9/Cyclin T1 (activity range), Kd. Summed up:
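TR-FRET displacement of an Alexa Fluor 647 active-site tracer, detected with a Eu anti-GST antibody, over an 8-point 1:3 compound series. Tracer was set at its Kd (30 nM for CDK2/Cyclin A, CDK7 and CDK9/Cyclin T1; 35 nM for CDK9/Cyclin K). Read after 1 h at room temperature; Kd was fitted from sigmoidal curves.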

A further assay concerns the target T2, CDK2/CyclinA (Homo sapiens, UniProt P24941).
T2 construct: GST; purchased Proqinase
The assay can be described thus: Lance Ultra KinaSelect Assay, CDK2. Conditions: ATP 3 μM; read-out: CDK2 LANCE assay (activity range), IC50. Format: biochemical. The protocol:
(§1) 2. Measurement of half maximal inhibitory concentration to CDKs This protocol describes how the Lance Ultra KinaSelect Assay was performed to determine half maximal inhibitory concentration (1050) of compounds of general formula (I) and CDK/Cyclin complexes. The principle behind this enzymatic assay is based upon the phosphorylation of the ULight-Peptide Substrat. It is detected by using a specific
(§2) EU-labeled anti-phospho peptide antibody. The binding of the Eu-labeled anti-phospho peptide antibody to the phosphorylated ULight labeled peptide gives rise to a FRET-signal. Binding of an inhibitor to the kinase prevents phosphorylation of the ULight-MBP Substrat, resulting in a loss of FRET.
(§3) The compounds of general formula (I) summarized in Table 5 were diluted from a 10 mM DMSO stock solution 1:10 in a total volume of 15 μL DMSO. This compound predilution was then serial diluted 1:3 over 8 steps in DMSO and briefly spun down. Each compound solution was now diluted 1:20 in Enzymatic Buffer (HEPES: 50 mM, pH: 7.5; MgCl2: 10 mM; EGTA: 1 mM; DTT: 2 mM; Tween-20: 0.01%), mixed thoroughly and spun down. For every sample, 2 μL of the diluted compound were mixed with 6 μL CDK/Cyclin/Substrat solution and 2 μL ATP solution in a well of a small volume 384 well plate (Corning Incorporated, Corning, N.Y., USA; order no. 3673). The CDK/Cyclin was diluted to the appropriate concentration (see Table 3) and the ATP concentration was adjusted to its […] for the CDK/Cyclin, which was 3 μM for CDK2/Cyclin A, 20 μM for CDK1/Cyclin B1, 25 μM for CDK7/Cyclin H and CDK9/Cyclin T1, 55 μM for CDK6/Cyclin D3, 90 μM for CDK4/Cyclin D1 and 125 μM for CDK9/Cyclin K. For negative controls, in each well 2 μL of DMSO solution (1% final DMSO assay concentration) was mixed with 6 μL substrate solution (50 nM ULight MBP final assay concentration) and 2 μL ATP solution (appropriate final concentration see Table 3). For positive controls, in each well 2 μL of DMSO solution (1% final DMSO assay concentration) was mixed with 6 μL CDK/Cyclin/Substrat (appropriate final concentration see Table 3) and 2 μL Tracer ATP solution (appropriate final concentration see Table 3). Positive and negative controls were calculated from at least 8 different sample wells. The 384 well plates were mixed in a Teleshaker plate mixer (Beckman Coulter, Brea, Calif., USA) at 2000 rpm for 40 sec, and incubated for 1 h at room temperature. Before reading, 10 μL the detection buffer (Lance Detection Buffer 1×; EDTA: […]; Eu-Anti-P-MBP: see Table 3) was added. The FRET signal was measured at 340 nm excitation, 665 nm and 615 nm emission (for the kinase tracer and LanthaScreen Eu-AB, respectively) with an Envision spectrophotometer (Perkin Elmer, Waltham, Mass., USA) with 50 μs delay and 300 μs integration time. IC50 values were determined from the sigmoidal dose response curves with the software Quattro Workflow (Quattro GmbH, Munich, Germany).
On the technique in general: In TR-FRET formats the signal depends on donor and acceptor labels being close together.

The next assay addresses T3, CDK6/CyclinD3 (Homo sapiens, UniProt Q00534).
T3 construct: purchased Carna
The assay can be described thus: Lance Ultra KinaSelect Assay, CDK6. The class given is biochemical. Conditions: ATP 55 μM; read-out: CDK6 LANCE assay (activity range), IC50. As to the method:
as §1, §2, §3

T1 sequence (P50750 whole entry): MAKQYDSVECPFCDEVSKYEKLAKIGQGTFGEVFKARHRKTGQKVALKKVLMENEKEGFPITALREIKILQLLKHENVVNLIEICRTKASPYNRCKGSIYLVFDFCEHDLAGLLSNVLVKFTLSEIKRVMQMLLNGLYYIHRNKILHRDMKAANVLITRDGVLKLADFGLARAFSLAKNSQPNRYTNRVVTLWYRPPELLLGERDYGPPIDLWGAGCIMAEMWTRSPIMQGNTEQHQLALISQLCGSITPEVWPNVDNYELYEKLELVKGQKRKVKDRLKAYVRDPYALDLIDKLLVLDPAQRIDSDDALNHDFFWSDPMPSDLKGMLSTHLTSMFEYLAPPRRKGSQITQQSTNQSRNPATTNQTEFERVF
T1 sequence (O60563 whole entry partner): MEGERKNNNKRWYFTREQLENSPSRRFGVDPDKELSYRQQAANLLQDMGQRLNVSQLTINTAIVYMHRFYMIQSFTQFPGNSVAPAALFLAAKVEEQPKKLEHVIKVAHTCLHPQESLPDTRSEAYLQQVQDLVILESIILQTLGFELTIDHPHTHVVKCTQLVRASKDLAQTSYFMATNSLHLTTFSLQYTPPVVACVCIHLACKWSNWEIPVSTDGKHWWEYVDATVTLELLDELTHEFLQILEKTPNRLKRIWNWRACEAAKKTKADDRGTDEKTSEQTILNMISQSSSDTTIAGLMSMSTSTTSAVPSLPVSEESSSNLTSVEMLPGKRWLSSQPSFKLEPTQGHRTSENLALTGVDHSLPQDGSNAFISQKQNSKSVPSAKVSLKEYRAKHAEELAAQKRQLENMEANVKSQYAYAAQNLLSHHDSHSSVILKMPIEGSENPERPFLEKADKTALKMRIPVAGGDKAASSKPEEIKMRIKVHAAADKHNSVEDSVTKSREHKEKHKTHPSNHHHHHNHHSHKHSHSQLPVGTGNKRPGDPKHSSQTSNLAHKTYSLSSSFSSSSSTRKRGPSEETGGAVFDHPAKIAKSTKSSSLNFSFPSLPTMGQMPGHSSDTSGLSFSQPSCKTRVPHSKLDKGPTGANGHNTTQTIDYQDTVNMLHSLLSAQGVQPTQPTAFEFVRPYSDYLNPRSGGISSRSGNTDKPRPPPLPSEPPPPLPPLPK
T3 sequence (Q00534 whole entry): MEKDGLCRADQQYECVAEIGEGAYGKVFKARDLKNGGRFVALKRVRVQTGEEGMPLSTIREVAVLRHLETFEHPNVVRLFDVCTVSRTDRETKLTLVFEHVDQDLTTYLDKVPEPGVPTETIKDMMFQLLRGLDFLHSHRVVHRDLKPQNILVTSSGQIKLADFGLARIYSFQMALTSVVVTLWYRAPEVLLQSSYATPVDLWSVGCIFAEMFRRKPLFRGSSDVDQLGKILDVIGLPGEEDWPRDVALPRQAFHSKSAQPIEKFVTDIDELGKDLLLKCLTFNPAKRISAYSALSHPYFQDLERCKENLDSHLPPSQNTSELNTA
T3 sequence (P30281 whole entry partner): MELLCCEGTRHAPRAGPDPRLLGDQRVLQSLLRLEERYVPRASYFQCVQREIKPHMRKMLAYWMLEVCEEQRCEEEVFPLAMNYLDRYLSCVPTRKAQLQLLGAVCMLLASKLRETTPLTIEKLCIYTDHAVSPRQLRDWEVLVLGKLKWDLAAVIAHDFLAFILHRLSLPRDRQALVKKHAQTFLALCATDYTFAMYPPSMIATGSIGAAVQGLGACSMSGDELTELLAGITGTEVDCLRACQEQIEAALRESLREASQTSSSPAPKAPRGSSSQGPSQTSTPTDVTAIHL

For `NS(=O)(=O)Cc1cccc(Nc2ncnc(N3CCCC3c3ccccc3)n2)c1` (racemic) [Compound B33, rac-3-[(4-(2-Phenylpyrrolidin-1-yl)-1,3,5-triazin-2-yl)amino]-benzenemethanesulfonamide], at CDK9/Cyclin T1, the Kd is below 100 nM. The IC50 at CDK2/CyclinA and on CDK6/CyclinD3 was above 10000 nM each time.
For the compound `NS(=O)(=O)Cc1cccc(Nc2ncnc(N3CCc4ncsc4C3)n2)c1` [Compound B45, 3-[(4-(6,7-Dihydrothiazolo[5,4-c]pyridin-5(4H)-yl)-1,3,5-triazin-2-yl)amino]benzenemethanesulfonamide], the Kd at CDK9/Cyclin T1 is below 100 nM. The IC50 (as a rule, the concentration at which inhibition is half-maximal) on CDK2/CyclinA is below 100 nM.
Consider `NS(=O)(=O)Cc1cccc(Nc2ncnc(N3CCCn4nccc43)n2)c1` [Compound B47, 3-[(4-(6,7-Dihydropyrazolo[1,5-a]pyrimidin-4(5H)-yl)-1,3,5-triazin-2-yl)amino]benzenemethanesulfonamide], for which the Kd on CDK9/Cyclin T1 is below 100 nM. In addition, the IC50 is below 100 nM at CDK2/CyclinA and 1000 to 10000 nM on CDK6/CyclinD3.
With `NS(=O)(=O)Cc1cccc(Nc2ncnc(N3CCc4nc[nH]c4C3)n2)c1` [Compound B44, 3-[(4-(6,7-Dihydro-3H-imidazo[4,5-c]pyridin-5(4H)-yl)-1,3,5-triazin-2-yl)amino]benzenemethanesulfonamide], the Kd on CDK9/Cyclin T1 was below 100 nM.
For `NS(=O)(=O)Cc1cccc(Nc2ncnc(N3Cc4cn[nH]c4C3)n2)c1` [Compound B51, 3-[(4-(Pyrrolo[3,4-c]pyrazol-5(1H,4H,6H)-yl)-1,3,5-triazin-2-yl)amino]-benzenemethanesulfonamide], at CDK9/Cyclin T1, the Kd is below 100 nM. The values for the IC50 on CDK2/CyclinA and at CDK6/CyclinD3 were 100 to 1000 nM and above 10000 nM, respectively.
With `COC[C@H]1CCCN1c1ncnc(Nc2cccc(CS(N)(=O)=O)c2)n1` [Compound B17, (R)-3-[(4-(2-(Methoxymethyl)pyrrolidin-1-yl)-1,3,5-triazin-2-yl)amino]benzenemethanesulfonamide], the Kd at CDK9/Cyclin T1 was below 100 nM. The results for the IC50 on CDK2/CyclinA and on CDK6/CyclinD3 were 1000 to 10000 nM and above 10000 nM, respectively.
For `NS(=O)(=O)Cc1cccc(Nc2ncnc(N3CCCCC3)n2)c1` [Compound B1, 3-[(4-(Piperidin-1-yl)-1,3,5-triazin-2-yl)amino]benzenemethane sulfonamide], in that order: 100 to 1000 nM, above 10000 nM and above 10000 nM.
`COC(=O)[C@H]1CCCN1c1ncnc(Nc2cccc(CS(N)(=O)=O)c2)n1` [Compound B21, (R)-Methyl 1-[4-((3-(Sulfamoylmethyl)phenyl)amino)-1,3,5-triazin-2-yl]pyrrolidine-2-carboxylate]: the Kd on CDK9/Cyclin T1 was below 100 nM.
For `NS(=O)(=O)Cc1cccc(Nc2ncnc(N3CCc4ncccc4C3)n2)c1` [Compound B38, 3-[(4-(7,8-Dihydro-1,6-naphthyridin-6(5H)-yl)-1,3,5-triazin-2-yl)amino]-benzenemethanesulfonamide], the Kd at CDK9/Cyclin T1 was below 100 nM. Besides, the IC50 at CDK2/CyclinA was 100 to 1000 nM; on CDK6/CyclinD3 it was above 10000 nM.
